Reference: patent US9333211B2, “Phosphaplatin mediated modulation of pigment epithelial derived factor and uses thereof” (UNIVERSITY OF HOUSTON SYSTEM, priority 2013, dated 2016)
Entries after “also recorded” stand apart in the source; their conditions may differ.

Legend:
HUVEC tube formation = assay: HUVEC tubulogenesis assay on Matrigel; type: cell-based, human; settings: for neovascularization (tube formation) in HUVEC: after 30 min of treatment; for tube formation after treatment: HUVEC on Matrigel, 30 min treatment period
Experimental: Endothelial cell tubulogenesis assay was performed seeding 20,000 cells of HUVECs in 96-well plate that was pre-coated with 0.1% gelatin and 40 ul of Matrigel and treated with increasing concentration of phosphaplatin compounds, RRD2 and RRD4 in medium 199 (Lonza Walkersville, Frederick, Md.) supplemented with 20% heat-inactivated FBS (Hyclone, Logan, Utah), 100 μg/ml heparin (Sigma Aldrich, St. Louis, Mo.), 100 U/ml penicillin-streptomycin (Lonza Walkersville, Frederick, Md.) and endothelial mitogen (Biomedical Technologies, Stoughton, Mass.). In brief, Matrigel was defrosted overnight at 4° C. and the 0.1% gelatin coated 96 well plate was chilled and 40 μl of Matrigel was coated into each well. The plate was then incubated at 37° C. and 5% CO2 for 1 hour. The 96-well plate was seeded with 2×10^4 cells of HUVECs. After a 24 hour period of cell attachment each well was treated with the increasing concentration of Pt compounds overnight (8-10 hours) at 37° C. and 5% CO2. The capillary/tube formation structures formed were then recorded by an inverted microscope and quantified. Cells were counted in total visual area of 1.575 mm.
To further investigate the anti-angiogenetic behavior of RRD2 and RRD4 on endothelial cell tube formation, we treated HUVECs with different concentration of RRD2 and RRD4 (compounds A and D in FIG. 2) onto Matrigel. After 30 min of incubation with tube-like structures were monitored with an inverted microscope at 40× magnification.

ARPE19 cells = assay: CellTiter-Glo Luminescent Cell Viability Assay; type: cell-based, human; settings: 100 μM, 24 hours of treatment
Experimental: Promega's CellTiter-Glo® Luminescent Cell Viability Assay was used to determine the number of viable cells in a culture by quantification of ATP (Promega. Madison, Wis.). Briefly, ARPE19 cells, a normal human retinal pigment epithelial cell line, were seeded in a 96 well plate with 10,000-30,000 cells per well and were allowed to attach for 24 hours. Thereafter, the cells were treated with RRD2 or RRD4 at different concentrations ranging from 1 to 100 μM for 24 hours. The detection reagent was prepared per manufactures protocol and equal volume of CellTiter-Glo® reagent was added to each well of cell culture and luminescence read with integration time set for 0.25 to 1 second. The Glo titer Viability Assay has a linear range is from 0 to 50,000 cells per well. Each concentration was done in triplicate.

PEDF protein [1] = assay: PEDF protein expression by Western blot in A2780 cells; type: cell-based, human; settings: 3 hrs, 6 hrs and 12 hrs treatment
Experimental: Treated human ovarian cancer cells (approximately 1×10^6 cells in 60 mm^3 plates at 80-90% confluence) line with 20 μM RRD2 and 25 μM RRD4 for 3, 6 and 12 hrs was washed with PBS for three times. Total protein was extracted by treating the washed cells directly with 200 μl of RIPA (Sigma, St. Louis, Mo.) or MPER (Pierce, USA). Protein extract samples (50 μg) were separated by 12% SDS-PAGE and blotted onto polyvinylidene difluoride (PVDF) membranes. The blots were washed with TBST [10 mM Tris-HCl (pH 7.6), 150 mM NaCl, 0.1% Tween-20], blocked with 5% skim milk and 1% BSA overnight at 4 C, and incubated with the mouse anit-PEDF (Santa Cruz Biotechnology, USA) primary antibody at 1:500 dilutions in TBST with 5% skim milk and 1% BSA overnight at 4° C. The membrane was then washed TBST, and the primary antibodies were detected with secondary antibody goat anti-mouse IgG conjugated to horseradish peroxidase at 1:2500 dilution for 1.5 hours at room temperature. The blots were developed with enhanced chemiluminescence (ECL) (Pierce, USA) and exposed to X-ray film.

PEDF protein [2] = assay: PEDF protein expression by immunofluorescence in A2780 cells; type: cell-based, human; settings: for PEDF protein expression by immunofluorescence: 12 hour treatment; for PEDF overexpression, time dependence: 3 to 24 hr, 20 and 25 μM
Experimental: A 6-well plate containing pretreated cover slips was seeded with 500-1000 cells of A2780 human ovarian cancer cell lines in 2.5 ml of RPMI 1640 media (Lonza Walkersville, Frederick, Md.) containing 2.0 mM L-glutamine and supplemented with 10% heat inactivated fetal bovine serum, FBS (Hyclone, Logan, Utah), and 0.25 units/mL recombinant human insulin (Sigma Aldrich, St. Louis, Mo.), 100 U/ml penicillin-streptomycin (Lonza Walkersville, Frederick, Md.). Those cells reaching to 80% confluency were treated with phosphaplatin compounds, RRD2 and RRD4 at various time intervals (3, 6, 12, or 24 hours). Each of the cover slip was washed with PBS three times, and the cells were fixed with freshly prepared 4% paraformaldehyde at room temperature for 20 minutes. The fixed cells were then washed with PBS for three times. These cells were permeablized and blocked with 7.5% bovine serum albumin, BSA/PBS/0.01% triton-X100 at 37° C. for 60 minutes followed by washing the cells with PBS twice. The cover slips were treated with a 1:300 dilution of Pigment epithelium-derived factor (PEDF; also known as serpin F1, SERPINF1) mouse primary antibody (Cell Signalling Technology Inc., Danvers, Mass.) in 7.5% BSA/PBS/0.01% triton for 12-15 hours 37° C. and washed with PBS for three times. The coverslips were incubated with secondary Alexa Fluor 488-conjugated anti-mouse IgG (FITC-Green) (Invitrogen, Carlsbad, Calif.) at a 1:5000 dilution in 7.5% BSA/PBS/0.01% triton-X100 for 1 hour at 37° C. in the dark. The cover-slips were then washed with PBS for another three times. In addition, some treatments were stained for beta-Actin and was stained with Phalloidin (Rhodamine) (Red) (Invitrogen, Carlsbad, Calif.) (7 ul/ml) in 7.5% BSA/PBS/0.01% triton-X100 for 1 hour at 37° C. in the dark. The moist cover-slips were then mounted onto a microscope slide with Ultracruz mounting media containing DAPI (4′,6-diamidino-2-phenylindole) (Blue) (Santa Cruz Biotechnology, Santa Cruz, Calif.) (for identifying the nucleus) and images were then collected on an Olympus FV-1000 inverted stage confocal microscope using a Plan Apo N 60×1.42NA oil immersion objective and processed by FluoView software.

PEDF gene [3] = assay: PEDF gene expression, Human angiogenesis PCR array (real-time PCR); type: cell-based; settings: A2780 cells, 24 hr, ΔΔCT vs β-actin
Experimental: Human ovarian cancer cell lines, A2780 (Fox Chase) were cultured in 100 mm^3 plates in monolayer by using RPMI medium 1640 supplemented with 10% FBS, 2 mM glutamine, 0.25 units/mL insulin and penicillin/streptomycin (100 units/ml) in a 37° C. incubator continuously gassed with 5% CO2. The cells were treated with either RRD2 and RRD4, 5 μM and 13 μM, respectively, for 24 hrs in triplicate. The cells were collected by 0.025% trypsin-edta and were centrifuged. The pellet of cells was then resuspended in PBS and washed three times with PBS and pelleted. The total RNA isolated using the Qiagen RNeasy Mini kit (Qiagen Inc.) according to the handbook protocol. The quantity of RNA was measured spectrophotometrically at Absorbance 260 nm (1Abs260=40 ug/ml) and the quality of RNA A260:A280 ratio was measured between 1.8 to 2.0. For each experiment, 0.9 μg of total RNA was converted to cDNA using the RT^2 first strand kit (SABiosciences, Qiagen Inc.) and analyzed on the SABiosciences (Qiagen Inc.) PAHS-024C Human angiogenesis array with an Applied Biosciences 7900HT real-time PCR machine according to manufactures protocol. The threshold cycle (Ct) and baseline for each well was determined by instruments software and the resulting Ct values were analyzed using SABiosciences PCR Array Data Analysis Web-based Software (http://sabiosciences.com/pcrarraydataanalysis.php). β-Actin and/or GADPH were used as housekeeping gene for determining fold regulation.

PEDF gene [4] = assay: Individual PEDF gene expression, two step qRT-PCR; type: cell-based, human; settings: A2780 cells, Single gene expression, endogenous control GADPH
Experimental: Individual Gene expression for PEDF was assessed by two step qRT-PCR assay. First, RNA isolation and purification was done as described above. A total of 2 μg total RNA was used to reverse-transcribe the template into single-stranded cDNA using RT^2 first strand kit (SABiosciences, Qiagen Inc.). In the second step, the synthesized cDNA was subjected to qRT-PCR RT^2 Primer Set (PEDF) used with SYBR Green real-time PCR master mix detection and endogenous control β-actin and/or GADPH (Applied Biosystems, Foster City, Calif.). All PCR reactions involving cDNA samples from treated and untreated cells were run in triplicate. Quantitative real-time PCR reactions were carried out on the StepOne PCR machine, 48 well system (Applied Biosystems, Foster City, Calif.) according to manufactures protocol. Results were generated using the StepOne software v2.1. The 2^−ΔΔCt method was used to present the relative differences in the mRNA expression levels.

Compound: NC1CCCCC1N.O=P1(O)[O][Pt][O]P(=O)(O)O1 [RRD2, R,R-trans-1,2-cyclohexane-diamine (dihydrogen pyrophospahto)platinum(II)]
- inhibition of HUVEC tube formation on Matrigel (HUVEC tube formation; 0.5 μM, 30 min incubation): more than 85%
- neovascularization (tube formation) in HUVEC (HUVEC tube formation; 1 μM): inhibition
- tube formation after treatment (HUVEC tube formation): No tube formation was evident
- effect on viability of ARPE19 retinal cells (ARPE19 cells): no effect
- PEDF protein expression by Western Blotting (PEDF protein [1]; A2780, 20 μM): overexpression; also recorded: upregulated
- PEDF protein expression by immunofluorescence (PEDF protein [2]; A2780, 20 μM): overexpression; also recorded: overexpressed or upregulated
- PEDF overexpression, time dependence (PEDF protein [2]; human ovarian cells): time dependent overexpression
- treatment time of maximum PEDF protein expression (PEDF protein [2]; immune-fluorescence experiments, human ovarian cells): 12 h
- Fold change expression of PEDF (PEDF gene [3]; 5 uM): 2.64 fold
- Fold change expression of PEDF (PEDF gene [3]; 20 uM): 5.79 fold

Compound: NC1CCCCC1N.O=P1(O)OP(=O)(O)[O][Pt]([OH])([OH])[O]1 [RRD4, R,R-trans-1,2-cyclohexane-diamine-trans-dihydroxo(dihydrogenpyrophospahto) platinum(IV)]
- neovascularization (tube formation) in HUVEC (HUVEC tube formation; 10 μM): inhibition
- tube formation after treatment (HUVEC tube formation): No tube formation was evident
- effect on viability of ARPE19 retinal cells (ARPE19 cells): no effect
- PEDF protein expression by Western Blotting (PEDF protein [1]; A2780, 25 μM): overexpression; also recorded: upregulated
- PEDF protein expression by immunofluorescence (PEDF protein [2]; A2780, 25 μM): overexpression; also recorded: overexpressed or upregulated
- PEDF overexpression, time dependence (PEDF protein [2]; human ovarian cells): time dependent overexpression
- Fold change expression of PEDF (PEDF gene [4]; 25 uM, 3 hr): 2.1 fold
- Fold change expression of PEDF (PEDF gene [4]; 50 uM, 24 hr): 4.1 fold
- Fold change expression of PEDF (PEDF gene [3]; 13 uM): 2.05 fold
